Assay results published in US11560400B2, “Salts of diphosphate phosphoramidate of nucleosides as anticancer compounds” (NuCana plc, priority 2017, dated 2023).
Counter-ions that a name gives are not always drawn.

Columns and labels:
MCF-7 = test: CellTiterGlo cell viability assay, MCF-7; assay type: cell-based; conditions: Homo sapiens, MCF7, 72 h, MCF-7, 72 h; for inhibition at 198 µM: percentage inhibition at the highest concentration tested, read-out: Top Inhibit
Method: (§1) A subset of compounds of the invention were assayed for their cytotoxic activity in an array of different solid tumours and haematological malignancies using the following assay.
(§2) In vitro viability assay were performed to assess the effects of compounds on cell viability in selected cell lines over 72 h using the CellTiterGlo (CTG, Promega-G7573) assay. The tests were performed in duplicates with treatment of compounds at 9 points, 3.16 folds titration in 96 well plates over ˜72 h. The compound starting concentrations were 198 μM. Cell viability assay using CellTiterGlo in 96-well plate were performed. Compound treatment 72 h, standard growth conditions, duplicates. Compounds were dissolved to 40 mM with thawed […]. Compounds were serially diluted at 3.16 fold in thawed DMSO, and warmed to 37° C. before being dissolved in media (2 μL+200 μL). After compounds were dissolved in media, media containing compounds were warmed to 37° C. in incubator and then compounds in media were added to cell plates (50 μL+50 μL) in duplicates. The compounds' final concentrations were from 198 μM to 19.8 nM. All compound solubilities were checked and recorded again, then the plates were transferred to CO2 tissue culture incubator immediately and incubated for 3 days. DMSO final concentration is 0.5%. The parent nucleoside in each case was tested as a comparator, as was an exemplary ProTide. The drugs of the ProTide class that were tested were as follows:
(§3) The following cell lines were tested and are referred to in the Table 1 below:
(§4) In Tables 2, 3 and 4, ‘Ab EC50’ refers to the absolute EC50 and ‘Top inhibit’ refers to the percentage inhibition achieved at the highest concentration tested.

OVCAR 3 = test: CellTiterGlo cell viability assay, OVCAR 3; assay type: cell-based; conditions: Homo sapiens; for inhibition at 198 µM: OVCAR-3, 72 h, percentage inhibition at the highest concentration tested, read-out: Top Inhibit; for EC50: OVCAR 3, 72 h, Table 4 classes, read-out: Ab EC50
Method: as §1, §2, §3, §4

K562 = test: CellTiterGlo cell viability assay, K562; assay type: cell-based; conditions: Homo sapiens; for inhibition at 198 µM: K562, 72 h, percentage inhibition at the highest concentration tested, read-out: Top Inh; for EC50: K562, K 562, 72 h, Table 4 classes, read-out: Ab EC50
Method: as §1, §2, §3, §4

CCRF-CEM = test: CellTiterGlo cell viability assay, CCRF-CEM; assay type: cell-based; conditions: Homo sapiens, 72 h; for EC50: Table 4 classes, read-out: Ab EC50; for inhibition at 198 µM: percentage inhibition at the highest concentration tested, read-out: Top Inh
Method: as §1, §2, §3, §4

HT29 = test: CellTiterGlo cell viability assay, HT29; assay type: cell-based; conditions: Homo sapiens, HT-29, 72 h, HT29, 72 h; for EC50: Table 4 classes, read-out: Ab EC50; for inhibition at 198 µM: percentage inhibition at the highest concentration tested, read-out: Top Inhibit
Method: as §1, §2, §3, §4

HepG2 = test: CellTiterGlo cell viability assay, HepG2; assay type: cell-based; conditions: Homo sapiens, HepG2, 72 h; for EC50: Table 4 classes, read-out: Ab EC50; for inhibition at 198 µM: percentage inhibition at the highest concentration tested, read-out: Top Inhibit
Method: as §1, §2, §3, §4

RL = test: CellTiterGlo cell viability assay, RL; assay type: cell-based; conditions: Homo sapiens, 72 h; for inhibition at 198 µM: percentage inhibition at the highest concentration tested, read-out: Top Inh; for EC50: Table 4 classes, read-out: Ab EC50
Method: as §1, §2, §3, §4

KG-1 = test: CellTiterGlo cell viability assay, KG-1; assay type: cell-based; conditions: Homo sapiens, KG-1, 72 h; for EC50: Table 4 classes, read-out: Ab EC50; for inhibition at 198 µM: percentage inhibition at the highest concentration tested, read-out: Top Inhibit
Method: as §1, §2, §3, §4

MOLT-4 = test: CellTiterGlo cell viability assay, MOLT-4; assay type: cell-based; conditions: Homo sapiens, MOLT-4, 72 h; for inhibition at 198 µM: percentage inhibition at the highest concentration tested, read-out: Top Inh; for EC50: Table 4 classes, read-out: Ab EC50
Method: as §1, §2, §3, §4

HL-60 = test: CellTiterGlo cell viability assay, HL-60; assay type: cell-based; conditions: Homo sapiens, HL-60, 72 h; for EC50: Table 4 classes, read-out: Ab EC50; for inhibition at 198 µM: percentage inhibition at the highest concentration tested, read-out: Top Inh
Method: as §1, §2, §3, §4

RPMI-8226 = test: CellTiterGlo cell viability assay, RPMI-8226; assay type: cell-based, Human; conditions: Homo sapiens, RPMI-8226, 72 h; for EC50: Table 4 classes, read-out: Ab EC50; for inhibition at 198 µM: percentage inhibition at the highest concentration tested, read-out: Top Inh
Method: as §1, §2, §3, §4

SMILES	inhibition at 198 µM (MCF-7) [%]	inhibition at 198 µM (OVCAR 3) [%]	EC50 (OVCAR 3) [nM]	inhibition at 198 µM (K562) [%]	EC50 (K562) [nM]	EC50 (CCRF-CEM) [nM]	inhibition at 198 µM (CCRF-CEM) [%]	EC50 (HT29) [nM]	inhibition at 198 µM (HT29) [%]	EC50 (HepG2) [nM]	inhibition at 198 µM (HepG2) [%]	inhibition at 198 µM (RL) [%]	EC50 (KG-1) [nM]	inhibition at 198 µM (KG-1) [%]	inhibition at 198 µM (MOLT-4) [%]	EC50 (MOLT-4) [nM]	EC50 (HL-60) [nM]	inhibition at 198 µM (HL-60) [%]	EC50 (RPMI-8226) [nM]	inhibition at 198 µM (RPMI-8226) [%]	other results
COC(=O)[C@H](C)NP(=O)(Oc1ccccc1)OP(=O)(O)OC[C@H]1O[C@@H](n2cnc3c(N)nc(Cl)nc32)[C@H](F)C1O (stereo partly drawn) [Example 16, 2-Chloro-9-(2′-Deoxy-2′-fluoro-β-D-arabinofuranosyl)adenine-5′-O-[1-phenyl(methoxy-L-alaninyl)] Diphosphate Triethylammonium Salt]	47	44	> 10000	33	> 10000	< 200	99	200 to 1000	71	200 to 1000	53	49	< 200	93	97	< 200	< 200	96	> 10000	84	
CC(C)(NP(=O)(Oc1cccc2ccccc12)OP(=O)(O)OC[C@H]1O[C@@H](n2cnc3c(N)nc(Cl)nc32)[C@H](F)C1O)C(=O)OCc1ccccc1 (stereo partly drawn) [Example 11, 2-Chloro-9-(2′-Deoxy-2′-fluoro-β-D-arabinofuranosyl)adenine-5′-O-[1-naphthyl(benzoxy-dimethylglycinyl)] Diphosphate Triethylammonium Salt]	57	70	> 10000	50	> 10000	< 200	99	200 to 1000	69	1000 to 5000	58	47	< 200	92	91	< 200	< 200	96	> 10000	81	EC50 (MCF-7; Table 4 classes, read-out: Ab EC50): > 10000 nM
C[C@H](NP(=O)(Oc1cccc2ccccc12)OP(=O)(O)OC[C@H]1O[C@@H](n2cnc3c(N)nc(Cl)nc32)[C@H](F)C1O)C(=O)OCc1ccccc1 (stereo partly drawn) [Example 17, 2-Chloro-9-(2′-Deoxy-2′-fluoro-β-D-arabinofuranosyl)adenine-5′-O-[1-1-naphthyl(benzoxy-L-alaninyl)] Diphosphate Triethylammonium Salt]	46	47	> 10000	37	> 10000	< 200	99	200 to 1000	69	200 to 1000	52	48	< 200	92	88	< 200	< 200	96	> 10000	82	
CC(C)C[C@H](NP(=O)(Oc1ccccc1)OP(=O)(O)OC[C@H]1O[C@@H](n2cnc3c(N)nc(Cl)nc32)[C@H](F)C1O)C(=O)OCc1ccccc1 (stereo partly drawn) [Example 21, 2-Chloro-9-(2′-Deoxy-2′-fluoro-β-D-arabinofuranosyl)adenine-5′-O-[1-phenyl(benzoxy-L-leucinyl)] Diphosphate Triethylammonium Salt]	49	47	> 10000	32	> 10000	< 200	99	200 to 1000	69	200 to 1000	53	70	< 200	92	90	< 200	< 200	96	> 10000	81	EC50 (RL): 1000 to 5000 nM
CCOP(=O)(N[C@@H](C)C(=O)OCc1ccccc1)OP(=O)(O)OC[C@H]1O[C@@H](n2cnc3c(N)nc(Cl)nc32)[C@H](F)C1O (stereo partly drawn) [Example 20, 2-Chloro-9-(2′-Deoxy-2′-fluoro-β-D-arabinofuranosyl)adenine-5′-O-[1-ethyl(benzoxy-L-alaninyl)] Diphosphate Triethylammonium Salt]	48	49	> 10000	35	> 10000	< 200	99	200 to 1000	69	200 to 1000	54	69	< 200	92	89	< 200	< 200	96	> 10000	80	EC50 (RL): 200 to 1000 nM
C[C@@H](NP(=O)(Oc1ccccc1)OP(=O)(O)OC[C@H]1O[C@@H](n2cnc3c(N)nc(Cl)nc32)[C@H](F)C1O)C(=O)OCC(C)(C)C (stereo partly drawn) [Example 14, 2-Chloro-9-(2′-Deoxy-2′-fluoro-β-D-arabinofuranosyl)adenine-5′-O-[phenyl(neopentoxy-D-alaninyl)] Diphosphate Triethylammonium Salt]	48	43	> 10000	36	> 10000	< 200	99	200 to 1000	71	200 to 1000	52	49	< 200	93	95	< 200	< 200	96	> 10000	78	
Nc1nc(Cl)nc2c1ncn2[C@@H]1O[C@H](COP(=O)(O)OP(=O)(Oc2ccccc2)N2CCCC2C(=O)OCc2ccccc2)[C@H](O)C1F (stereo partly drawn) [Example 23, 2-Chloro-9-(2′-Deoxy-2′-fluoro-β-D-arabinofuranosyl)adenine-5′-O-[1-phenyl(benzoxy-L-prolinyl)] Diphosphate Triethylammonium Salt]	48	63	> 10000	35	> 10000	< 200	99	200 to 1000	68	1000 to 5000	51	39	< 200	93	89	< 200	< 200	96	> 10000	85	
